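Results reflect a 48-hour exposure of cells in 96-well plates to compound at five concentrations. TGI denotes the concentration required for complete inhibition of growth.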
What follows are compounds tested on 786-0 renal (assay: inhibition of tumour cell growth, NCI panel, 48 h).

| SMILES | TGI |
| --- | --- |
| CC(C)=C1C(=O)C[C@]2(C)C[C@H]3O[C@]3(C)CC[C@@H]3O[C@@]3(C)CC[C@@H]12 | > 50 µM |
| COc1cccc2c1C(=O)C1=C(C2=O)C(O)CC(C)(C)O1 (stereo not given) | > 100 µM |
| Cc1ccc(Cc2n[nH]c(=O)[nH]2)cc1 | > 100 µM |
| O=c1ccn([C@@H]2C[C@H]2CO)c(=O)[nH]1 | > 100 µM |
| COc1ccc(N2CN3OC(=O)N(c4ccc(OC)cc4)[C@@]3(c3ccccc3)C2)cc1 | > 100 µM |

Each compound was assayed on HT29 colon (assay: inhibition of tumour cell growth, NCI panel, 48 h).

| SMILES | TGI |
| --- | --- |
| CN(Cc1cnc2nc(N)nc(N)c2n1)c1ccc(C(=O)NCCS(=O)(=O)O)cc1 | > 100 µM |
| COc1ccccc1CCN1CCN(CCCc2ccccc2)CC1 | > 100 µM |
| O=C1NC(N/N=C/c2ccccc2)=N/C1=C\c1ccco1 | > 100 µM |
| O=C(C1OC1c1ccc(Cl)cc1)C12CC3CC(CC(C3)C1)C2 (stereo not given) | 41.9 µM |
| NC1c2c(Br)sc(N3CCCC3)c2C(=O)C1O (stereo not given) | > 50 µM |
| CC(C)=C1C(=O)C[C@]2(C)C[C@H]3O[C@]3(C)CC[C@@H]3O[C@@]3(C)CC[C@@H]12 | > 50 µM |
| COc1cccc2c1C(=O)C1=C(C2=O)C(O)CC(C)(C)O1 (stereo not given) | > 100 µM |
| Cc1ccc(Cc2n[nH]c(=O)[nH]2)cc1 | > 100 µM |
| O=c1ccn([C@@H]2C[C@H]2CO)c(=O)[nH]1 | > 100 µM |
| COc1ccc(N2CN3OC(=O)N(c4ccc(OC)cc4)[C@@]3(c3ccccc3)C2)cc1 | 50.6 µM |

The compounds below were run on KM12 colon (assay: inhibition of tumour cell growth, NCI panel, 48 h).

| SMILES | TGI |
| --- | --- |
| CN(Cc1cnc2nc(N)nc(N)c2n1)c1ccc(C(=O)NCCS(=O)(=O)O)cc1 | > 100 µM |
| COc1ccccc1CCN1CCN(CCCc2ccccc2)CC1 | > 100 µM |
| O=C1NC(N/N=C/c2ccccc2)=N/C1=C\c1ccco1 | > 100 µM |
| O=C(C1OC1c1ccc(Cl)cc1)C12CC3CC(CC(C3)C1)C2 (stereo not given) | 41 µM |
| NC1c2c(Br)sc(N3CCCC3)c2C(=O)C1O (stereo not given) | > 50 µM |
| CC(C)=C1C(=O)C[C@]2(C)C[C@H]3O[C@]3(C)CC[C@@H]3O[C@@]3(C)CC[C@@H]12 | > 50 µM |
| COc1cccc2c1C(=O)C1=C(C2=O)C(O)CC(C)(C)O1 (stereo not given) | 91.2 µM |
| Cc1ccc(Cc2n[nH]c(=O)[nH]2)cc1 | > 100 µM |
| O=c1ccn([C@@H]2C[C@H]2CO)c(=O)[nH]1 | > 100 µM |
| COc1ccc(N2CN3OC(=O)N(c4ccc(OC)cc4)[C@@]3(c3ccccc3)C2)cc1 | > 100 µM |

The compounds below were run on SK-MEL-2 melanoma (assay: inhibition of tumour cell growth, NCI panel, 48 h).

| SMILES | TGI |
| --- | --- |
| CN(Cc1cnc2nc(N)nc(N)c2n1)c1ccc(C(=O)NCCS(=O)(=O)O)cc1 | > 100 µM |
| COc1ccccc1CCN1CCN(CCCc2ccccc2)CC1 | > 100 µM |
| O=C1NC(N/N=C/c2ccccc2)=N/C1=C\c1ccco1 | > 100 µM |
| O=C(C1OC1c1ccc(Cl)cc1)C12CC3CC(CC(C3)C1)C2 (stereo not given) | 43.6 µM |
| NC1c2c(Br)sc(N3CCCC3)c2C(=O)C1O (stereo not given) | > 50 µM |
| CC(C)=C1C(=O)C[C@]2(C)C[C@H]3O[C@]3(C)CC[C@@H]3O[C@@]3(C)CC[C@@H]12 | > 50 µM |
| COc1cccc2c1C(=O)C1=C(C2=O)C(O)CC(C)(C)O1 (stereo not given) | > 100 µM |
| Cc1ccc(Cc2n[nH]c(=O)[nH]2)cc1 | > 100 µM |
| O=c1ccn([C@@H]2C[C@H]2CO)c(=O)[nH]1 | > 100 µM |
| COc1ccc(N2CN3OC(=O)N(c4ccc(OC)cc4)[C@@]3(c3ccccc3)C2)cc1 | 45.1 µM |

Each compound was assayed on PC-3 prostate (assay: inhibition of tumour cell growth, NCI panel, 48 h).

| SMILES | TGI |
| --- | --- |
| CN(Cc1cnc2nc(N)nc(N)c2n1)c1ccc(C(=O)NCCS(=O)(=O)O)cc1 | > 100 µM |
| COc1ccccc1CCN1CCN(CCCc2ccccc2)CC1 | > 100 µM |
| O=C1NC(N/N=C/c2ccccc2)=N/C1=C\c1ccco1 | > 100 µM |
| O=C(C1OC1c1ccc(Cl)cc1)C12CC3CC(CC(C3)C1)C2 (stereo not given) | 79.9 µM |
| NC1c2c(Br)sc(N3CCCC3)c2C(=O)C1O (stereo not given) | > 50 µM |
| CC(C)=C1C(=O)C[C@]2(C)C[C@H]3O[C@]3(C)CC[C@@H]3O[C@@]3(C)CC[C@@H]12 | > 50 µM |
| COc1cccc2c1C(=O)C1=C(C2=O)C(O)CC(C)(C)O1 (stereo not given) | 68.4 µM |
| Cc1ccc(Cc2n[nH]c(=O)[nH]2)cc1 | > 100 µM |
| O=c1ccn([C@@H]2C[C@H]2CO)c(=O)[nH]1 | > 100 µM |
| COc1ccc(N2CN3OC(=O)N(c4ccc(OC)cc4)[C@@]3(c3ccccc3)C2)cc1 | 67.3 µM |

The compounds below were run on HL-60(TB) leukemia (assay: inhibition of tumour cell growth, NCI panel, 48 h).

| SMILES | TGI |
| --- | --- |
| CN(Cc1cnc2nc(N)nc(N)c2n1)c1ccc(C(=O)NCCS(=O)(=O)O)cc1 | > 100 µM |
| COc1ccccc1CCN1CCN(CCCc2ccccc2)CC1 | > 100 µM |
| O=C1NC(N/N=C/c2ccccc2)=N/C1=C\c1ccco1 | > 100 µM |
| O=C(C1OC1c1ccc(Cl)cc1)C12CC3CC(CC(C3)C1)C2 (stereo not given) | 42.6 µM |
| NC1c2c(Br)sc(N3CCCC3)c2C(=O)C1O (stereo not given) | > 50 µM |
| CC(C)=C1C(=O)C[C@]2(C)C[C@H]3O[C@]3(C)CC[C@@H]3O[C@@]3(C)CC[C@@H]12 | > 50 µM |
| COc1cccc2c1C(=O)C1=C(C2=O)C(O)CC(C)(C)O1 (stereo not given) | 33.8 µM |
| Cc1ccc(Cc2n[nH]c(=O)[nH]2)cc1 | > 100 µM |
| O=c1ccn([C@@H]2C[C@H]2CO)c(=O)[nH]1 | > 100 µM |
| COc1ccc(N2CN3OC(=O)N(c4ccc(OC)cc4)[C@@]3(c3ccccc3)C2)cc1 | 67.9 µM |

Each compound was assayed on A498 renal (assay: inhibition of tumour cell growth, NCI panel, 48 h).

| SMILES | TGI |
| --- | --- |
| CN(Cc1cnc2nc(N)nc(N)c2n1)c1ccc(C(=O)NCCS(=O)(=O)O)cc1 | > 100 µM |
| COc1ccccc1CCN1CCN(CCCc2ccccc2)CC1 | > 100 µM |
| O=C1NC(N/N=C/c2ccccc2)=N/C1=C\c1ccco1 | > 100 µM |
| O=C(C1OC1c1ccc(Cl)cc1)C12CC3CC(CC(C3)C1)C2 (stereo not given) | 46.7 µM |
| NC1c2c(Br)sc(N3CCCC3)c2C(=O)C1O (stereo not given) | > 50 µM |
| CC(C)=C1C(=O)C[C@]2(C)C[C@H]3O[C@]3(C)CC[C@@H]3O[C@@]3(C)CC[C@@H]12 | > 50 µM |
| COc1cccc2c1C(=O)C1=C(C2=O)C(O)CC(C)(C)O1 (stereo not given) | > 100 µM |
| Cc1ccc(Cc2n[nH]c(=O)[nH]2)cc1 | > 100 µM |
| O=c1ccn([C@@H]2C[C@H]2CO)c(=O)[nH]1 | > 100 µM |
| COc1ccc(N2CN3OC(=O)N(c4ccc(OC)cc4)[C@@]3(c3ccccc3)C2)cc1 | > 100 µM |

These compounds were tested on SNB-75 CNS (assay: inhibition of tumour cell growth, NCI panel, 48 h).

| SMILES | TGI |
| --- | --- |
| CN(Cc1cnc2nc(N)nc(N)c2n1)c1ccc(C(=O)NCCS(=O)(=O)O)cc1 | > 100 µM |
| COc1ccccc1CCN1CCN(CCCc2ccccc2)CC1 | > 100 µM |
| O=C1NC(N/N=C/c2ccccc2)=N/C1=C\c1ccco1 | > 100 µM |
| O=C(C1OC1c1ccc(Cl)cc1)C12CC3CC(CC(C3)C1)C2 (stereo not given) | 96.1 µM |
| NC1c2c(Br)sc(N3CCCC3)c2C(=O)C1O (stereo not given) | > 50 µM |
| CC(C)=C1C(=O)C[C@]2(C)C[C@H]3O[C@]3(C)CC[C@@H]3O[C@@]3(C)CC[C@@H]12 | > 50 µM |
| COc1cccc2c1C(=O)C1=C(C2=O)C(O)CC(C)(C)O1 (stereo not given) | > 100 µM |
| Cc1ccc(Cc2n[nH]c(=O)[nH]2)cc1 | > 100 µM |
| O=c1ccn([C@@H]2C[C@H]2CO)c(=O)[nH]1 | > 100 µM |
| COc1ccc(N2CN3OC(=O)N(c4ccc(OC)cc4)[C@@]3(c3ccccc3)C2)cc1 | 95.2 µM |

These compounds were tested on SNB-19 CNS (assay: inhibition of tumour cell growth, NCI panel, 48 h).

| SMILES | TGI |
| --- | --- |
| CN(Cc1cnc2nc(N)nc(N)c2n1)c1ccc(C(=O)NCCS(=O)(=O)O)cc1 | > 100 µM |
| COc1ccccc1CCN1CCN(CCCc2ccccc2)CC1 | > 100 µM |
| O=C1NC(N/N=C/c2ccccc2)=N/C1=C\c1ccco1 | > 100 µM |
| O=C(C1OC1c1ccc(Cl)cc1)C12CC3CC(CC(C3)C1)C2 (stereo not given) | > 100 µM |
| NC1c2c(Br)sc(N3CCCC3)c2C(=O)C1O (stereo not given) | > 50 µM |
| CC(C)=C1C(=O)C[C@]2(C)C[C@H]3O[C@]3(C)CC[C@@H]3O[C@@]3(C)CC[C@@H]12 | > 50 µM |
| COc1cccc2c1C(=O)C1=C(C2=O)C(O)CC(C)(C)O1 (stereo not given) | > 100 µM |
| Cc1ccc(Cc2n[nH]c(=O)[nH]2)cc1 | > 100 µM |
| O=c1ccn([C@@H]2C[C@H]2CO)c(=O)[nH]1 | > 100 µM |
| COc1ccc(N2CN3OC(=O)N(c4ccc(OC)cc4)[C@@]3(c3ccccc3)C2)cc1 | > 100 µM |

The compounds below were run on NCI/ADR-RES ovarian (assay: inhibition of tumour cell growth, NCI panel, 48 h).

| SMILES | TGI |
| --- | --- |
| CN(Cc1cnc2nc(N)nc(N)c2n1)c1ccc(C(=O)NCCS(=O)(=O)O)cc1 | > 100 µM |
| COc1ccccc1CCN1CCN(CCCc2ccccc2)CC1 | > 100 µM |
| O=C1NC(N/N=C/c2ccccc2)=N/C1=C\c1ccco1 | > 100 µM |
| O=C(C1OC1c1ccc(Cl)cc1)C12CC3CC(CC(C3)C1)C2 (stereo not given) | 49 µM |
| NC1c2c(Br)sc(N3CCCC3)c2C(=O)C1O (stereo not given) | > 50 µM |
| CC(C)=C1C(=O)C[C@]2(C)C[C@H]3O[C@]3(C)CC[C@@H]3O[C@@]3(C)CC[C@@H]12 | > 50 µM |
| COc1cccc2c1C(=O)C1=C(C2=O)C(O)CC(C)(C)O1 (stereo not given) | 75.7 µM |
| Cc1ccc(Cc2n[nH]c(=O)[nH]2)cc1 | > 100 µM |
| O=c1ccn([C@@H]2C[C@H]2CO)c(=O)[nH]1 | > 100 µM |
| COc1ccc(N2CN3OC(=O)N(c4ccc(OC)cc4)[C@@]3(c3ccccc3)C2)cc1 | 32 µM |

Source: PubChem BioAssay (NCI)
